Experimental data from patent publication EP3290412A1, “HIV-1 NUCLEOCAPSID INHIBITORS” (Università degli Studi di Siena, priority 2016, dated 2018).

Experiments:
[1] = molecular target: T1, full length (1-55) HIV-1 NCp7 (Human immunodeficiency virus type 1 group M subtype B, UniProt P12493); assay: Electromobility Shift Assay (EMSA), competition for ssDNA binding; conditions: NCp7 300 nM, M13mp18 ssDNA; positive = >25% inhibition at 100µM
T1 construct: recombinant full length (1-55) HIV-1 NCp7 proteins; made in house
Excerpt: The assay used a recombinant full length (1-55) HIV-1 NCp7 proteins based on the NL4-3 sequence (GenBank accession number AF324493). The protein was expressed and purified as described in [Carteau, S., Gorelick, R. J. & Bushman, F. D. Coupled integration of human immunodeficiency virus type 1 cDNA ends by purified integrase in vitro: stimulation by the viral nucleocapsid protein. Journal of virology 73, 6670-6679 (1999)].
Competition for single-stranded (ss) DNA binding was realized by mixing 1 µL of serial dilutions of NC inhibitors (diluted in DMSO) with 44 µL of NCp7 (300 nM) in a reaction buffer (20 mM Tris-HCl pH 7.4, 2 mM MgCl2, 100 mM NaCl, 1 mM DTT). 5 µL of a 10 ng/µL (4 nM) solution of M13mp18 ssDNA (BayouBiolabs) were then added and the tubes were incubated for 25 minutes at 37 °C. The reaction was terminated by chilling the tubes on ice followed by the addition of 5 µL of a loading buffer (30% glycerol, 0.01% xylene cyanol, 10 mM Tris-HCl pH 7.4). Samples were then resolved on 25 cm-long, 1% (w/v) agarose gels (SeaKem LE Agarose, Lonza) in 0.5x TBE. Gels were run in a Sub-Cell GT cuvette (BioRad) for 18 h at room temperature at 3 V/cm, stained with SybrGold (Molecular Probes) and scanned for fluorescence using a Typhoon 8600 (GE Healthcare). The experiments were performed in triplicate. Competition efficiency was realized by measuring the relative distance in pixels between the unbound ssDNA control, the NCp7-bound ssDNA control and the bound ssDNA for each points of the titration with the ImageQuant software. The IC50 was estimated as the NC inhibitors concentrations for which the bound ssDNA migrated at 50% of the distance separating the bound from the unbound ssDNA.

[2] = molecular target: NC(11-55) (Human immunodeficiency virus type 1, UniProt P12493); assay: NC inhibition assay (NC-induced cTAR DNA destabilization, fluorescence); format: biochemical, HIV-1; conditions: for inhibition at 100 µM: single point screening, positive = >25% inhibition at 100µM
Excerpt: The NC inhibition assay is based on the nucleic acid chaperone activity of the NC protein. NC destabilizes the secondary structure of cTAR DNA, the complementary sequence of the transactivation response element, which is involved in minus-strand DNA transfer during reverse transcription. In the assay, the cTAR sequence from the HIV-1 Mal strain (Bernacchi et al, J Mol Biol, 2002) is labeled with a dye (Alexa488 fluorophore) and a quencher 4-(4'-dimethylaminophenylazo)benzoic acid (Dabcyl) at its 5' and 3' ends, respectively. In the absence of destabilization, the close proximity of both cTAR ends results in a strong fluorescence quenching of the dye emission by the Dabcyl group. NC(11-55) added to cTAR at a ratio of 10 NC/cTAR melts the bottom of the cTAR stem, which increases the distance between the dye and the quencher and as a result increases the dye fluorescence signal [Shvadchak et al, (2009) Identification by high throughput screening of small compounds inhibiting the nucleic acid destabilization activity of the HIV-1 nucleocapsid protein. Biochimie, 916-923]. NCIs are expected to prevent the NC-induced destabilization of cTAR and thus reverse the NC-induced increase in the fluorescence of the labeled cTAR. The activity of the inhibitor is thus evaluated from the ratio of the fluorescence intensity observed in the presence of NC with the molecule to the one in the absence of the compound.
The doubly labelled cTAR DNA oligonucleotides (55nt) were synthesised and purified by IBA GmbH Nucleic Acids Product Supply (Göttingen, Germany). Extinction coefficient at 260 nm of 5.73 x 10^5 M^-1 cm^-1 was used to determine the concentration of cTAR.
The NC(11-55) peptide (Avilov et al, Antimicrob Agents Chemother, 2012) was synthesized by solid-phase peptide synthesis on a 433A synthesizer (ABI, Foster City, CA) as previously described [De Rocquigny H, (1991) First large scale chemical synthesis of the 72 amino acid HIV-1 nucleocapsid protein NCp7 in an active form. Biochem Biophys Res Commun., 1010-1018]. The peptide was stored lyophilized and was resuspended in water before use. The concentration of peptide was determined by using an extinction coefficient of 5.7 x 10^3 M^-1 cm^-1 at 280 nm. Next, 2.5 molar equivalents of ZnSO4 were added and pH was raised to its final value by adding buffer.
All experiments were performed at 20 °C in 25 mM Tris-HCl (pH 7.5), 30 mM NaCl, and 0.2 mM MgCl2. To evaluate the inhibition activity of compounds on NC-induced cTAR destabilization, cTAR DNA (0.1 µM) was preincubated with 1 µM NC(11-55) (molar ratio NC:cTAR = 10:1) for 15 min at room temperature before addition of compound. For single point screening, all compounds were tested at three final concentrations: 1 µM, 10 µM and 100 µM. For the IC50 determination, inhibition of NC-induced cTAR melting was monitored through addition of increasing concentrations of the selected molecules to the pre-formed NC(11-55)-cTAR complex. After the addition of compound, the mixture was incubated for 15 min at room temperature before the reading. The fluorescence signal was recorded with a plate reader Xenius (SAFAS Monaco) or Fluoromax 3 spectrofluorometer (Horiba Jobin-Yvon), and the excitation and emission wavelengths were 480 and 520 nm, respectively. The spectra were corrected for dilution, buffer fluorescence and screening effect (when it was required). In order to check the occurrence of aggregation, we performed additional reading of absorption with the plate reader Xenius (SAFAS Monaco) or Cary 4000 spectrophotometer (Agilent). […]

[3] = test system: HIV-1 reference strain NL4-3; assay: BiCycle assay (MT-2 then TZM-bl cells); format: cell-based; conditions: Human immunodeficiency virus 1, NL43, TZM-bl; for IC50: read-out: BiCycle IC50 nM
Description: BiCycle Assay is cell based assay allowing the evaluation of the antiviral activity of HIV-1 inhibitors on the whole replication cycle of HIV-1. The assay consists in a first round of infection of the T-cell line MT-2 followed by infection of TZM-bl cells. MT-2 cells were seeded at a concentration of 50,000 cells/well in a 96-well plate and infected with the HIV-1 reference strain NL4-3 in presence of five-fold dilutions of the investigational compounds. After 72 hours, 50 µl of supernatant from each well, containing the virus produced in the first round of infection, were used to infect TZM-bl cells seeded in a 96-plate well at a concentration of 30,000 cells/well. Two days later, cells were lysed adding 40 µl of Glo Lysis Buffer (Promega) to each well for 5 minutes, then 40 µl of Brighy-Glo Luciferase Reagent (Promega) were added to each well for relative luminescence units (RLU) counting using Glo-Max Multi Detection System (Promega). RLU values from each well were elaborated using the GraphPad v5.0 software to calculate the IC50 of each compound.

For `O=C(NCC1CCCCC1)c1nc(-c2ccccn2)nc(O)c1O` [Compound 1, N-(cyclohexylmethyl)-5,6-dihydroxy-2-(pyridin-2-yl)pyrimidine-4-carboxamide], the EMSA screening results [1] was “Positive (A compound showing >25% inhibition when tested at 100µM concentration is considered as "positive")”, the IC50 [2] was 167 µM and the inhibition at 100 µM [2] was > 25%. It also gave an IC50 [3] of 1210 nM.

`O=C(OCC1CCCCC1)c1nc(-c2ccccn2)nc(O)c1O` [Compound 2, cyclohexylmethyl 5,6-dihydroxy-2-(pyridin-2-yl)pyrimidine-4-carboxylate] was tested, and the EMSA screening results [1] was “Negative”, the IC50 [2] was 74 µM and the inhibition at 100 µM [2] was > 25%. The IC50 [3] was 1780 nM.

`O=C(NCC1CC1)c1nc(-c2ccccn2)nc(O)c1O` [Compound 3, N-(cyclopropylmethyl)-5,6-dihydroxy-2-(pyridin-2-yl)pyrimidine-4-carboxamide] was tested, and the EMSA screening results [1] was “Negative”, the IC50 [2] was 390 µM and the inhibition at 100 µM [2] was > 25%. For the same compound, the IC50 [3] was 1410 nM.

For `O=C(NC1CCCCC1)c1nc(-c2ccccn2)nc(O)c1O` [Compound 4, N-cyclohexyl-5,6-dihydroxy-2-(pyridin-2-yl)pyrimidine-4-carboxamide], the EMSA screening results [1] was “Negative”, the IC50 [2] was 320 µM and the inhibition at 100 µM [2] was > 25%. It also gave an IC50 [3] of 461 nM.

For `C[C@@H](NC(=O)c1nc(-c2ccccn2)nc(O)c1O)C1CCCCC1` [Compound 5, (R)-N-(1-cyclohexylethyl)-5,6-dihydroxy-2-(pyridin-2-yl)pyrimidine-4-carboxamide], the EMSA screening results [1] was “Positive (A compound showing >25% inhibition when tested at 100µM concentration is considered as "positive")”, the IC50 [2] was 42.5 µM and the inhibition at 100 µM [2] was > 25%. It also gave an IC50 [3] of 702 nM.

For `O=C(NCCC1CCCCC1)c1nc(-c2ccccn2)nc(O)c1O` [Compound 6, N-(2-cyclohexylethyl)-5,6-dihydroxy-2-(pyridin-2-yl)pyrimidine-4-carboxamide], the EMSA screening results [1] was “Positive (A compound showing >25% inhibition when tested at 100µM concentration is considered as "positive")”, the IC50 [2] was 37.5 µM and the inhibition at 100 µM [2] was > 25%. It also gave an IC50 [3] of 2260 nM.

`CN1CCCC(CNC(=O)c2nc(-c3ccccn3)nc(O)c2O)C1` (stereo not shown) [Compound 7, 5,6-dihydroxy-N-((1-methylpiperidin-3 - yl)methyl)-2-(pyridin-2-yl)pyrimidine-4-carboxamide] was tested, and the EMSA screening results [1] was “Positive (A compound showing >25% inhibition when tested at 100µM concentration is considered as "positive")”, the IC50 [2] was 335 µM and the inhibition at 100 µM [2] was > 25%. The IC50 [3] was > 50000 nM.

For `O=C(NCCCC1CCCCC1)c1nc(-c2ccccn2)nc(O)c1O` [Compound 8, N-(3-cyclohexylpropyl)-5,6-dihydroxy-2-(pyridin-2-yl)pyrimidine-4-carboxamide], the EMSA screening results [1] was “Positive (A compound showing >25% inhibition when tested at 100µM concentration is considered as "positive")”, the IC50 [2] was 27.5 µM and the inhibition at 100 µM [2] was > 25%. For the same compound, the IC50 [3] was 518 nM.

`Cc1cccnc1-c1nc(O)c(O)c(C(=O)OCC2CCCCC2)n1` [Compound 10, cyclohexylmethyl 5,6-dihydroxy-2-(3-methylpyridin-2-yl)pyrimidine-4-carboxylate] was tested, and the EMSA screening results [1] was “Negative”, the IC50 [2] was 55 µM and the inhibition at 100 µM [2] was > 25%. It also gave an IC50 [3] of 1400 nM.

`Cc1cccnc1-c1nc(O)c(O)c(C(=O)NCC2CCCCC2)n1` [Compound 11, N-(cyclohexylmethyl)-5,6-dihydroxy-2-(3-methylpyridin-2-yl)pyrimidine-4-carboxamide] was tested, and the EMSA screening results [1] was “Negative”, the IC50 [2] was 14.3 µM and the inhibition at 100 µM [2] was > 25%. The IC50 [3] was 716 nM.

`O=C(OCCC1CCCCC1)c1nc(-c2ccccn2)nc(O)c1O` [Compound 12, 2-cyclohexylethyl 5,6-dihydroxy-2-(pyridin-2-yl)pyrimidine-4-carboxylate] was tested, and the EMSA screening results [1] was “Negative”, the IC50 [2] was 57.5 µM and the inhibition at 100 µM [2] was > 25%. The IC50 [3] was 2820 nM.

`O=C(OC1CCCCC1)c1nc(-c2ccccn2)nc(O)c1O` [Compound 13, cyclohexyl 5,6-dihydroxy-2-(pyridin-2-yl)pyrimidine-4-carboxylate] was tested, and the EMSA screening results [1] was “Negative”, the IC50 [2] was 237 µM and the inhibition at 100 µM [2] was > 25%.

For `O=C(NCC1CCC1)c1nc(-c2cc3ccccc3cn2)nc(O)c1O` [Compound 47, N-(cyclobutylmethyl)-5,6-dihydroxy-2-(isoquinolin-3-yl)pyrimidine-4-carboxamide], the IC50 [2] was 6.5 µM, the inhibition at 100 µM [2] was > 25% and the IC50 [3] was 870 nM.

For `C[C@@H](NC(=O)c1nc(-c2cc(N)ccn2)nc(O)c1O)C1CCCCC1` [Compound 48, (R)-2-(4-aminopyridin-2-yl)-N-(1-cyclohexylethyl)-5,6-dihydroxypyrimidine-4-carboxamide], the IC50 [2] was 4 µM, the inhibition at 100 µM [2] was > 25% and the IC50 [3] was 1340 nM.

With `C[C@@H](NC(=O)c1nc(-c2ccc(Cl)cn2)nc(O)c1O)C1CCCCC1` [Compound 49, (R)-2-(5-chloropyridin-2-yl)-N-(1-cyclohexylethyl)-5,6-dihydroxypyrimidine-4-carboxamide] the IC50 [2] was 9 µM, the inhibition at 100 µM [2] was > 25% and the IC50 [3] was 352 nM.

For `Cc1nnc(C(=O)NC(C)(C)c2nc(C(=O)NCc3ccc(F)cc3)c(O)c(=O)n2C)o1` [Raltegravir™, Raltegravir, reference compound], the “HIV-1 nucleocapsid inhibition (result in words)” value ([2]; same experimental settings as the compounds of the invention) was “inactive” and the EC50 ([3]; read-out: Mean EC50 (nM)) was 1 nM.
